This passage reports EC50 results from patent US20100249071A1, “Modulators of S1P and Methods of Making And Using” (Exelixis, Inc., priority 2009, published 2010).

Read-outs that look alike come from different tables or passages of the source.

One assay concerns the target T1, S1P3 (Homo sapiens, UniProt Q99500).
T1 construct: host or cells: HEK293 (transient transfection)
The assay can be described thus: S1P3 Tango β-arrestin recruitment assay in HEK293 cells (Assay 5). It counts as cell-based. In a few lines: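 HEK293 cells transiently expressing S1P3 fused via TEV-cleavable linker to tTA, with β-arrestin2–TEV, treated 16-18 h at 37 °C with compounds (top 10 μM, 10-point 3-fold, 1% DMSO). Luciferase reporter luminescence normalised to DMSO background and 5 μM S1P control as percent activity; EC50 from concentration-response curves.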
In general terms: Arrestin recruitment assays detect the binding of arrestin to an activated receptor.

A further assay concerns the target T2, S1P1 (Homo sapiens, UniProt P21453).
T2 construct: host or cells: U2OS
The experiment in a line: Tango β-arrestin recruitment assay in U2OS cells (Assay 2b). The settings on record: read-out: Assay 2b EC50. It counts as cell-based. In a few lines: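 In this agonist-mode Tango assay, U2OS cells carrying S1P1 and the reporter were serum-starved 48 h, then exposed overnight at 37 °C to compound (10 points, 3-fold, top 1 μM, 1% DMSO). β-Lactamase F460/F530 ratio was normalized to 1 μM S1P, and EC50 was fitted.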

Assay [1] has as its target T3, hS1P1R (hEdg1) membrane protein (Homo sapiens, UniProt P21453).
T3 construct: purchased Lonza
The assay can be described thus: hS1P1R GTPγS binding assay (Assay 3a). It counts as biochemical. In a few lines:
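Membranes (4 μg) expressing hS1P1R incubated 1 h at room temperature with 30 μM GDP, 0.1 nM [^35S]GTPγS, 0.25% fatty acid free BSA and serially diluted agonist in Tris-HCl pH 7.9/NaCl/MgCl2/EGTA buffer. Bound [^35S]GTPγS captured on WGA SPA beads (further 1 h) and counted.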
(GTPγS resists hydrolysis and so accumulates on activated G proteins.)

For assay [2], the target named is T4, hS1PR5 (hEdg8) membrane protein (Homo sapiens, UniProt Q9H228).
T4 construct: expressed in transfected cells; host or cells: CHO
The experiment in a line: hS1P5R GTPγS binding assay (Assay 4). It is filed as biochemical. In a few lines:
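Membranes (5 μg) from CHO cells expressing hS1PR5, incubated 1 h at room temperature with 30 μM GDP, 0.1 nM [35S]GTPγS, 0.25% fatty acid free BSA and serially diluted compound in pH 7.9 Tris buffer with MgCl2. WGA SPA beads added for another 1 h, then bound [35S]GTPγS counted by scintillation.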

[3] abbreviates: * = rEC50 measured rather than EC50, read-out: Assay 5 rEC50 (relative EC50, cells marked *).

T4 sequence (Q9H228 whole entry): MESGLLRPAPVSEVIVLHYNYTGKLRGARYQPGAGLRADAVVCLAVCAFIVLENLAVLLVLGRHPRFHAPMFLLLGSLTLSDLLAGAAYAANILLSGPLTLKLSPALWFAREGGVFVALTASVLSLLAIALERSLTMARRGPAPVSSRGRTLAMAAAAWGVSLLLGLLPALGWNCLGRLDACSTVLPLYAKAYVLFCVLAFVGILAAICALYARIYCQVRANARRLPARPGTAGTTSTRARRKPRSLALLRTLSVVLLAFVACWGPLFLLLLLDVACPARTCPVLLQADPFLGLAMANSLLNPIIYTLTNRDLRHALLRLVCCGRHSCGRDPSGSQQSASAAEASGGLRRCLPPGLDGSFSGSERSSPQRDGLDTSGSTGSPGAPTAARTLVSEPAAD
T1 sequence (P32121 whole entry): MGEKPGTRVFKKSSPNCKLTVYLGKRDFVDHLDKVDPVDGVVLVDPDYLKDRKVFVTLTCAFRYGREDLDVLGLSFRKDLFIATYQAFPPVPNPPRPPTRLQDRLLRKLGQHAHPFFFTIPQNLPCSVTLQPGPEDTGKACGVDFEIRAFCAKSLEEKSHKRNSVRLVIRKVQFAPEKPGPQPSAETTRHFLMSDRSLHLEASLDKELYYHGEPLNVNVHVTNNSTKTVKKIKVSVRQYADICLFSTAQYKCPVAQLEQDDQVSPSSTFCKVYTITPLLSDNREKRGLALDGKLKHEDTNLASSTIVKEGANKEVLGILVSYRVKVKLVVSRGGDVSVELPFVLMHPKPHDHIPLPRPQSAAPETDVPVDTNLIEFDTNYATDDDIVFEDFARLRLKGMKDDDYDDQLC
T1 sequence (Q99500 whole entry): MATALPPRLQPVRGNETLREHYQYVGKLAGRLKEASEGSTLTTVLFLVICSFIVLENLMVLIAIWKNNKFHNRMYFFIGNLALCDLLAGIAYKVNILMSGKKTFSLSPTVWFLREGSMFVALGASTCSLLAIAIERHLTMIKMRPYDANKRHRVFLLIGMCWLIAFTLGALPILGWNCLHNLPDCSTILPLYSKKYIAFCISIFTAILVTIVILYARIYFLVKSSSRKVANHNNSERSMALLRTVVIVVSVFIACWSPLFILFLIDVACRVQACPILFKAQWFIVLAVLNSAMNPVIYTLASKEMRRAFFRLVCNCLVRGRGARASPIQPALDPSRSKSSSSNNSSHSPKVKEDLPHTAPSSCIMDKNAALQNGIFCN
T2 sequence (P32121 whole entry): as the sequence (P32121 whole entry) above
T2 sequence (P21453 whole entry): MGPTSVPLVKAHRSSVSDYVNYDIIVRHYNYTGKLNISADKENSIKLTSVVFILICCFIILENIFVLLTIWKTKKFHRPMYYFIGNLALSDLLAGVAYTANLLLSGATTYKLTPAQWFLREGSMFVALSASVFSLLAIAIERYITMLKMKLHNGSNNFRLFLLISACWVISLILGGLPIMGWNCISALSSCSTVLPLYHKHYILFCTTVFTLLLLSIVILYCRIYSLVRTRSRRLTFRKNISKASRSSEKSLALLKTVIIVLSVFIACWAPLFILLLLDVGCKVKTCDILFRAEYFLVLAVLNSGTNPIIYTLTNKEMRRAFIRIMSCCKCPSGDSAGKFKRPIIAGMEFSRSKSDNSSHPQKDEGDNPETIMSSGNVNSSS
T3 sequence (P21453 whole entry): as above

As usually defined, the EC50 is the concentration giving half of the maximal effect. Regarding `CC(C)Oc1ncc(-c2nnc(-c3cc(F)c(OC[C@@H](N)CO)cc3Cl)s2)cc1Cl` [Entry 32, (2S)-2-amino-3-{[5-chloro-4-(5-{5-chloro-6-[(1-methylethyl)oxy]pyridin-3-yl}-1,3,4-thiadiazol-2-yl)-2-fluorophenyl]oxy}propan-1-ol], the EC50 is at most 250 nM at S1P3 (read-out: Assay 5 EC50), at most 10 nM at S1P1, 10 to 50 nM in assay [1] and 250 to 2800 nM in assay [2].

With `CC(C)Oc1ccc(-c2nnc(-c3cc(F)c(OC[C@@H](N)[C@@H](C)OP(=O)(O)O)cc3Cl)s2)cc1Cl` [Entry 70, (1R,2R)-2-amino-3-{[5-chloro-4-(5-{3-chloro-4-[(1-methylethyl)oxy]phenyl}-1,3,4-thiadiazol-2-yl)-2-fluorophenyl]oxy}-1-methylpropyl dihydrogen phosphate], the EC50 on S1P3 (read-out: Assay 5 EC50) is at most 250 nM; on S1P1 it was at most 10 nM; in assay [1] it was at most 10 nM; in assay [2], at most 10 nM.

Regarding `Cc1cc(-c2nnc(-c3cc(F)c(OC[C@@H](N)[C@@H](C)O)cc3Cl)s2)cnc1NC(C)C` [Entry 67, (2R,3R)-3-amino-4-{[5-chloro-2-fluoro-4-(5-{5-methyl-6-[(1-methylethyl)amino]pyridin-3-yl}-1,3,4-thiadiazol-2-yl)phenyl]oxy}butan-2-ol], the EC50 is above 10000 nM at S1P3 (read-out: Assay 5 EC50), at most 10 nM on S1P1, 10 to 50 nM in assay [1] and 250 to 2800 nM in assay [2].

In the case of `CC(C)Oc1ccc(-c2nnc(-c3cc(F)c(OC[C@@H](N)[C@H](C)O)cc3Cl)s2)cc1C#N` [Entry 55, 5-[5-(4-{[(2R,3S)-2-amino-3-hydroxybutyl]oxy}-2-chloro-5-fluorophenyl)-1,3,4-thiadiazol-2-yl]-2-[(1-methylethyl)oxy]benzonitrile], the EC50 is at most 250 nM at S1P3 (read-out: Assay 5 EC50), at most 10 nM at S1P1, at most 10 nM in assay [1] and at most 10 nM in assay [2].

In the case of `Cc1cc(-c2nnc(-c3cc(F)c(OC[C@H](N)[C@H](C)OP(=O)(O)O)cc3Cl)s2)cc(NC(C)C)n1` [Entry 95, (1S,2S)-2-amino-3-{[5-chloro-2-fluoro-4-(5-{2-methyl-6-[(1-methylethyl)amino]pyridin-4-yl}-1,3,4-thiadiazol-2-yl)phenyl]oxy}-1-methylpropyl dihydrogen phosphate], the EC50 at S1P3 (read-out: Assay 5 EC50) is above 250 nM; on S1P1, at most 10 nM; in assay [1], at most 10 nM; in assay [2], 50 to 250 nM.

With `Cc1cc(-c2nnc(-c3cc(F)c(OC[C@@H](N)[C@H](C)O)cc3Cl)s2)cc(NC(C)C)n1` [Entry 98, (2S,3R)-3-amino-4-{[5-chloro-2-fluoro-4-(5-{2-methyl-6-[(1-methylethyl)amino]pyridin-4-yl}-1,3,4-thiadiazol-2-yl)phenyl]oxy}butan-2-ol], the EC50 on S1P3 (read-out: Assay 5 EC50) was at most 250 nM; at S1P1, at most 10 nM; in assay [1], at most 10 nM; in assay [2] it was 50 to 250 nM.

As for `CC(C)Nc1ccc(-c2nnc(-c3cc(F)c(OC[C@H](N)[C@H](C)O)cc3Cl)s2)cn1` [Entry 56, (2S,3S)-3-amino-4-{[5-chloro-2-fluoro-4-(5-{6-[(1-methylethyl)amino]pyridin-3-yl}-1,3,4-thiadiazol-2-yl)phenyl]oxy}butan-2-ol], the EC50 at S1P3 (read-out: Assay 5 EC50) is above 10000 nM; on S1P1, 250 to 2800 nM; in assay [1], 250 to 2800 nM; in assay [2], above 10000 nM.

As for `CC(C)Oc1ccc(-c2nnc(-c3cc(F)c(OC[C@H](N)[C@H](C)OP(=O)(O)O)cc3Cl)s2)cc1C#N` [Entry 53, (1S,2S)-2-amino-3-{[5-chloro-4-(5-{3-cyano-4-[(1-methylethyl)oxy]phenyl}-1,3,4-thiadiazol-2-yl)-2-fluorophenyl]oxy}-1-methylpropyl dihydrogen phosphate], the concentration for a half-maximal effect (EC50) was above 10000 nM at S1P3 (read-out: Assay 5 EC50), at most 10 nM on S1P1, at most 10 nM in assay [1] and at most 10 nM in assay [2].

For `Cc1cc(-c2nnc(-c3cc(F)c(OC[C@H](N)[C@H](C)O)cc3Cl)s2)ccc1OC(C)C` [Entry 61, (2S,3S)-3-amino-4-{[5-chloro-2-fluoro-4-(5-{3-methyl-4-[(1-methylethyl)oxy]phenyl}-1,3,4-thiadiazol-2-yl)phenyl]oxy}butan-2-ol], the half-maximal effective concentration (EC50) is above 10000 nM on S1P3 (read-out: Assay 5 EC50), 50 to 250 nM on S1P1, at most 10 nM in assay [1] and 10 to 50 nM in assay [2].

Consider `CC(C)Oc1ccc(-c2nnc(-c3cc(F)c(OC[C@H](N)[C@H](C)OP(=O)(O)O)cc3Cl)s2)cc1Cl` [Entry 69, (1S,2S)-2-amino-3-{[5-chloro-4-(5-{3-chloro-4-[(1-methylethyl)oxy]phenyl}-1,3,4-thiadiazol-2-yl)-2-fluorophenyl]oxy}-1-methylpropyl dihydrogen phosphate], for which the EC50 is above 250 nM at S1P3 (setting [3]), at most 10 nM on S1P1, at most 10 nM in assay [1] and 10 to 50 nM in assay [2].

In the case of `CC(C)Oc1ccc(-c2nnc(-c3cc(F)c(OC[C@@H](N)CO)cc3Cl)s2)cn1` [Entry 38, (2S)-2-amino-3-{[5-chloro-2-fluoro-4-(5-{6-[(1-methylethyl)oxy]pyridin-3-yl}-1,3,4-thiadiazol-2-yl)phenyl]oxy}propan-1-ol], the EC50 is at most 250 nM on S1P3 (read-out: Assay 5 EC50), at most 10 nM at S1P1, 10 to 50 nM in assay [1] and 250 to 2800 nM in assay [2].

For the compound `CC(C)Oc1ccc(-c2nnc(-c3cc(F)c(OC[C@@H](N)CO)cc3Cl)s2)cc1Br` [Entry 11, (2S)-2-amino-3-{[4-(5-{3-bromo-4-[(1-methylethyl)oxy]phenyl}-1,3,4-thiadiazol-2-yl)-5-chloro-2-fluorophenyl]oxy}propan-1-ol], the EC50 was at most 250 nM on S1P3 (read-out: Assay 5 EC50), at most 10 nM at S1P1, at most 10 nM in assay [1] and 10 to 50 nM in assay [2].

In the case of `CC(C)Nc1ccc(-c2nnc(-c3cc(F)c(OC[C@@H](N)CO)cc3Cl)s2)cc1Cl` [Entry 45, (2S)-2-amino-3-{[5-chloro-4-(5-{3-chloro-4-[(1-methylethyl)amino]phenyl}-1,3,4-thiadiazol-2-yl)-2-fluorophenyl]oxy}propan-1-ol], the concentration for a half-maximal effect (EC50) was above 250 nM on S1P3 (setting [3]), at most 10 nM at S1P1, at most 10 nM in assay [1] and 10 to 50 nM in assay [2].

With `CC(C)Nc1ccc(-c2nnc(-c3cc(F)c(OC[C@H](N)[C@@H](C)OP(=O)(O)O)cc3Cl)s2)cn1` [Entry 85, (1R,2S)-2-amino-3-{[5-chloro-2-fluoro-4-(5-{6-[(1-methylethyl)amino]pyridin-3-yl}-1,3,4-thiadiazol-2-yl)phenyl]oxy}-1-methylpropyl dihydrogen phosphate], the EC50 at S1P3 (read-out: Assay 5 EC50) was above 10000 nM; on S1P1, at most 10 nM; in assay [1] it was at most 10 nM; in assay [2] it was 10 to 50 nM.

With `CC(C)Oc1ccc(-c2nnc(-c3cc(F)c(OC[C@@H](N)[C@@H](C)O)cc3Cl)s2)cc1Cl` [Entry 74, (2R,3R)-3-amino-4-{[5-chloro-4-(5-{3-chloro-4-[(1-methylethyl)oxy]phenyl}-1,3,4-thiadiazol-2-yl)-2-fluorophenyl]oxy}butan-2-ol], the EC50 at S1P3 (read-out: Assay 5 EC50) is above 250 nM; on S1P1, at most 10 nM; in assay [1], at most 10 nM; in assay [2], 10 to 50 nM.
